Tested on: midbrain DA (TH^+) neurons
Test: Spontaneous dopaminergic (DA) cell death model in midbrain cultures
Format: cell-based, Wistar rat
Conditions: chronic treatments for 10 days
Method: Animals were treated in accordance with the Guide for the Care and Use of Laboratory Animals (National Research Council, 1996), European Directive 86/609, and the guidelines of the local institutional animal care and use committee. Cultures were prepared from the ventral mesencephalon of gestational age 15.5 Wistar rat embryos (Janvier Breeding Center, Le Genest St Isle, France). Dissociated cells in suspension obtained by mechanical trituration of midbrain tissue pieces were seeded at a density of 1.2-1.5 10^5 cells/ cm^2 onto tissue culture supports precoated with 1 mg/ml polyethylenimine diluted in borate buffer pH 8.3 as described (Michel PP, et al., J Neurochem. 1997 Oct;69(4):1499-507). The cultures were then maintained in N5 medium supplemented with 5 mM glucose, 5% horse serum, and 0.5% fetal calf serum, except for the first 3 days in vitro (DIV), when the concentration of fetal calf serum was 2.5% to favor initial maturation of the cultures (Guerreiro S, et al., Mol Pharmacol. 2008 Oct;74(4):980-9). They were fed daily by replacing 70% of the medium. […]
We used a model system in which DA cell loss was spontaneous. […] For the spontaneous dopaminergic cell death model, TH^+ neurons were counted while for the neuro-inflammation model, the number of microglial cells was evaluated. […]

Question: With `Nc1ncnc2c1ncn2[C@@H]1O[C@H](COP(=O)(O)OP(=O)(O)OC[C@H]2O[C@@H]([n+]3cccc(C(=O)[O-])c3)[C@H](O)[C@@H]2O)[C@@H](O)[C@H]1OP(=O)(O)O` [compound 1, 1-[(2R,3R,4S,5R)-5-[[[[(2R,3R,4R,5R)-5-(6-aminopurin-9-yl)-3-hydroxy-4-phosphonooxyoxolan-2-yl]methoxy-hydroxyphosphoryl]oxy-hydroxyphosphoryl]oxymethyl]-3,4-dihydroxyoxolan-2-yl]pyridin-1-ium-3-carboxylic acid] as the compound, how does the optimal neuroprotective concentrations read?
Answer: The optimal neuroprotective concentrations was 30 µM.

Question: How did the optimal neuroprotective concentrations turn out when `CC(=O)OCOC(=O)c1ccc[n+]([C@@H]2O[C@H](COP(=O)(O)OP(=O)(OCOC(C)=O)OC[C@H]3O[C@@H](n4cnc5c(N)ncnc54)[C@H](OP(=O)(OCOC(C)=O)OCOC(C)=O)[C@@H]3O)[C@@H](O)[C@H]2O)c1` (stereo partly drawn) [compound 2, 1-((2R,3R,4S,5R)-5-((((((acetoxymethoxy)(((2R,3R,4R,5R)-5-(6-amino-9H-purin-9-yl)-4-((bis(acetoxymethoxy)phosphoryl)oxy)-3-hydroxytetrahydrofuran-2-yl)methoxy)phosphoryl)oxy)(hydroxy)phosphoryl)oxy)methyl)-3,4-dihydroxytetrahydrofuran-2-yl)-3-((acetoxymethoxy)carbonyl)pyridin-1-ium] was run?
Answer: Its optimal neuroprotective concentrations is 1 µM.
